Like-named read-outs stand apart in the source and are kept apart here.
Key:
[1] = cited from earlier work
rats [2] = details: rat, in vivo
Method: (§1) A pre-clinical trial was carried out to assess the neurotoxicity of 2-chloroprocaine by intrathecal administration in repeated doses using a saline solution as control.
(§2) A first group of six rats was repeatedly treated with 20 μl of an injectable saline solution by intrathecal administration once a day.

[3] = in particular in form of hydrochloride; cited from earlier work
rats [4] = assay: Behaviour observation in the pre-clinical neurotoxicity trial with repeated intrathecal doses; details: for changes in behavior: 7 consecutive days
Method: as §1, §2

rats [5] = assay: Tail flick latency after repeated intrathecal doses; details: for tail flick latency before injecting: before the daily 20 μl intrathecal injection
Method: The data are presented as ±SEM average of 6 rats;
as §1, §2

[6] = test system: conus medullaris (cauda equina); assay: Histological nerve injury score of 10 mm caudal portion of conus medullaris (cauda equina); details: 0.5% solution
rats [7] = details: rat, in vivo; remark: listed apart in the source
Method: as §1, §2

[8] = Body weight variation after repeated intrathecal doses; details: rats, 20 μl of 0.5% solution intrathecally once a day, 7 consecutive days
Method: as §1, §2

rat = details: in vivo rat models, intrathecal, equipotent concentrations, versus lidocaine; cited from earlier work
rats [9] = assay: Motor function score after repeated intrathecal doses; details: 20 μl of 0.5% solution intrathecally once a day, 7 consecutive days
Method: as §1, §2

[10] = cited from earlier work; remark: listed apart in the source
[11] = rats, 20 μl of 0.5% solution intrathecally once a day
[12] = 20 μl of 0.5% solution intrathecally, chloroprocaine not significant, bupivacaine P<0.001

## CCN(CC)CCOC(=O)c1ccc(N)cc1Cl [2-chloroprocaine, 2-(diethylaminoethyl) 4-amino-2-chlorobenzoate]
[1]; offset by plasma pseudo cholinesterase
  half-life: lower than one
[1]; plasma
  plasma half-life: 45 to 60 s
Rats [2]
  motor functions (score): remained unchanged
[3]
  lasting of effect: 30 to 60 min
  onset: 5 to 15 min
Rats [4]; [11]
  changes in behavior: No appreciable changes in behavior
Rats [4]; rats, 20 μl of 1% solution intrathecally once a day
  changes in behavior: No appreciable changes in behavior
Rats [4]; rats, 20 μl of 2% solution intrathecally once a day
  changes in behavior: No appreciable changes in behavior
Rats [4]; rats, repeated intrathecal, 2-chloroprocaine 2%, bupivacaine 0.5%
  tolerability compared with other administered concentrations: less tolerated
Rats [4]; repeated intrathecal administration
  neurotoxicity of repeated intrathecal administration: does not determine detectable neurotoxicity
Rats [5]; 0.5% solution
  tail flick latency before injecting: comparable with the values of rats treated with vehicle
Rats [5]; 1% solution
  tail flick latency before injecting: comparable with the values of rats treated with vehicle
Rats [5]; 2% solution
  tail flick latency before injecting: comparable with the values of rats treated with vehicle
Rats [5]; [12]
  tail flick latency 20 minutes after injection: slight increase
Rats [5]; 20 μl of 1% solution intrathecally, P<0.05
  tail flick latency 20 minutes after injection: significant increase
Rats [5]; 20 μl of 2% solution intrathecally, P<0.001
  tail flick latency 20 minutes after injection: significant increase

## CCCCN1CCCCC1C(=O)Nc1c(C)cccc1C (stereo not drawn) [bupivacaine]
Rats [4]; [11]
  changes in behavior: modest sleepiness in one rat on the fifth day and in two rats on the sixth and seventh days
[6]; group of 6 rats, 7 days repeated intrathecal
  moderately inflammatory infiltrate in some fibers, number of rats: one
[6]; rats, 20 μl intrathecally once a day for 7 days, ±SEM of 6 rats, vehicle 0.809±0.067
  histological score (nerve injury score 0 to 3): 0.979±0.110
Rats [5]; 0.5% solution
  tail flick latency before injecting: comparable with the values of rats treated with vehicle
Rats [5]; [12]
  tail flick latency 20 minutes after injection: significant increase
Rats [7]
  tolerability compared with other administered concentrations: less tolerated
[8]
  body weight: decreased
rat
  morphological damage and functional worsening: less severe morphological damage and functional worsening than lidocaine
Rats [9]
  motor functions (score): two rats on the sixth day and three rats on the seventh day showed bilateral limbic weakness which influenced perambulation (score 2)

## CCN(CC)CC(=O)Nc1c(C)cccc1C [lidocaine]
[10]; use in spinal anesthesiological practice, Pollock 2002
  transient neurologic syndrome (TNS): associated to the onset of transient neurologic syndrome (TNS)

## CCN(CC)CCOC(=O)c1ccc(N)cc1 [procaine]
[10]; spinal anesthesia, Hodgson et al. 2000
  percentage of cases refractory to local anesthesia: 17%

— patent US9504666B2, “Chloroprocaine-based pharmaceutical composition for repeated intrathecal administration” (SINTETICA S.A., priority 2012, dated 2016)
